# In patent publication US20230165785A1, “METHOD FOR OBTAINING AN EXTRACT OF SANDALWOOD, COMPOSITIONS COMPRISING SAME AND COSMETIC USES THEREOF” (ISP INVESTMENTS LLC, priority 2020, published 2023):
# Key:
# [1] = test system: olfactory receptor OR2AT4; experiment: OR2AT4 expression by indirect immunofluorescence on human skin biopsies; format: cell-based
# Procedure: OR2AT4 expression was assessed by indirect immunofluorescence on skin biopsies, pre-treated by topical application of the solubilised extract of depleted sandalwood of Example 1 at 0.1%, 0.5% and 1% (volume/volume percentages), for 48 hours (twice daily). For this purpose, the solubilised extract of depleted sandalwood from Example 1 was diluted in 0.1%, 0.5% and 1% (volume/volume percentages) octyldodecanol. Other biopsies were given similar dilutions of sandalwood essential oil from Example 3 or a synthetic analogue Sandalore. Control biopsies incubated in parallel under the same conditions received placebo (octyldodecanol). After incubation, the biopsies were fixed and embedded in paraffin for histological sections. Detection of the OR2AT4 receptor was performed by incubation with anti-OR2AT4 antibody (Novus). After one and a half hours of incubation followed by rinses, the sections are incubated in the presence of the anti-rabbit secondary antibody coupled to a fluorophore (Alexa Fluor® 488, Invitrogen). The sections were then examined under an Epi-fluorescence microscope (Zeiss Axiovert 200M microscope). OR2AT4 expression was then observed and quantified by image analysis (Volocity® image analysis software, Improvision).
# filaggrin = experiment: Filaggrin expression by indirect immunofluorescence on skin biopsies; format: cell-based, human; conditions: positive control, concentration not given
# Procedure: Filaggrin is a protein involved in the cohesion and maintenance of the hydration of the upper layer of the epidermis, which is essential for maintaining the homeostasis of the skin barrier.
# Filaggrin expression was assessed by indirect immunofluorescence on skin biopsies, pre-treated by topical application of the solubilised extract of depleted sandalwood from Example 1, diluted in 0.1% octyldodecanol (volume/volume percentages, twice daily), for 48 hours. In parallel, biopsies were treated with a sandalwood essential oil of Example 3 from the same geographical site and tested under the same conditions. Control biopsies incubated in parallel under the same conditions were given the placebo (octyldodecanol). After incubation, the biopsies were fixed and embedded in paraffin for histological sections. Detection of filaggrin was performed by incubation with anti-filaggrin antibody (Santa Cruz). After one and a half hours of incubation followed by rinses, the sections were incubated in the presence of the anti-mouse secondary antibody coupled to a fluorophore (Alexa Fluor® 488, Invitrogen). The sections were then examined under an Epi-fluorescence microscope (Zeiss Axiovert 200M microscope). Filaggrin expression was then observed and quantified by image analysis (Volocity® image analysis software, Improvision).
SMILES,"OR2AT4 expression increase ([1]; 1% (v/v) in octyldodecanol, topical, twice daily, 48 hours, vs placebo)",OR2AT4 expression increase ([1]; 3% topical application),OR2AT4 expression increase ([1]; 5% topical application),effect on OR2AT4 expression ([1]; application of less than 1%),increase in filaggrin (filaggrin)
CC1=CCC(CCC(C)C(C)O)C1(C)C (centres unmarked) [Sandalore],28%,72%,71%,does not seem to have any effect,
"O=C(O[C@@H]1Cc2c(O)cc(O)cc2O[C@@H]1c1cc(O)c(O)c(O)c1)c1cc(O)c(O)c(O)c1 [EGCG, epigallocatechin gallate]",,,,,+27%
